From the supplement of paper PMC4862054

What was measured:
[1] = tested on: HCC1937; test: drug sensitivity score (DSS), CellTox Green (DSS (AUC-based score)); higher = stronger drug effect (viability inhibition or cytotoxicity); extreme values may be limits of the assay; details: incubation time: 72 h
How it was run: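 Breast cancer cell lines (20 µl suspension) were seeded into 384-well plates holding compound at 5 concentrations in 10-fold steps over a compound-specific 10,000-fold range, then incubated 72 h. CellTox Green fluorescence (485/520 nm) was read first, then CellTiter-Glo luminescence after 10 min at room temperature. Each plate was normalised to 0.1 % DMSO and a positive kill control. The drug sensitivity score was calculated from the area under the fitted dose-response curve.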

[2] = tested on: BT-549; details: 72 h
How it was run: (§1)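 A 20 µl suspension of breast cancer cells was placed in 384-well plates that already contained compound at 5 concentrations in 10-fold steps across a compound-specific 10,000-fold range, and the plates were left for 72 h. CellTox Green fluorescence at 485/520 nm gave cell death, and CellTiter-Glo luminescence, read after 10 min at room temperature, gave viability. Each plate was normalised to 0.1 % DMSO and a positive kill control. EC50 was fitted from the curves and censored at the top concentration.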

[3] = tested on: CAL-148; details: 72 h
How it was run: as §1

[4] = tested on: CAL-51; details: 72 h
How it was run: as §1

[5] = tested on: DU-4475; details: 72 h
How it was run: as §1

[6] = tested on: HCC1143; details: 72 h
How it was run: as §1

[7] = tested on: HCC1599; details: 72 h
How it was run: as §1

[8] = tested on: HCC1937; details: 72 h
How it was run: as §1

[9] = tested on: Hs578T; details: 72 h
How it was run: as §1

[10] = tested on: MDA-MB-436; details: 72 h
How it was run: as §1

[11] = tested on: SK-BR-3; details: 72 h
How it was run: as §1

[12] = tested on: CAL-148; details: 72 h; remark: listed apart in the source
Experimental: (§2)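 Drug sensitivity and resistance testing (DSRT) of breast cancer cell lines in 384-well plates, 5 concentrations in 10-fold dilutions over a compound-specific 10,000-fold range. After 72 h, cytotoxicity was read by CellTox Green fluorescence and viability by CellTiter-Glo luminescence (multiplexed), normalised to DMSO and benzethonium chloride controls. EC50 is the inflection point of the fitted dose-response curve (bottom asymptote free, so it can be relative for partial curves) and is censored at the highest tested concentration. Rows with DSS 0 (no meaningful response) were excluded.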

[13] = tested on: CAL-51; details: 72 h; remark: listed apart in the source
Experimental: as §2

[14] = tested on: CAL-120; details: 72 h
How it was run: as §1

[15] = tested on: CAL-85-1; details: 72 h
How it was run: as §1

[16] = tested on: MCF-10A; details: 72 h
How it was run: as §1

[17] = tested on: MDA-MB-231; details: 72 h
How it was run: as §1

[18] = tested on: MDA-MB-453; details: 72 h
How it was run: as §1

[19] = tested on: MFM-223; details: 72 h
How it was run: as §1

[20] = tested on: CAL-148; details: 72 h; remark: listed apart in the source
How it was run: (§3)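 For viability, cells received 2.5 µl CellTiter-Blue for 2 h at 37 °C and fluorescence was read at 560/590 nm. Before this, breast cancer cell lines in 20 µl suspension had been incubated for 72 h on 384-well plates pre-loaded with compound dissolved in 5 µl medium. EC50 was obtained from a percent-inhibition dose-response fit censored at the highest concentration, after normalisation of each plate to vehicle and a positive kill control; rows with a zero drug sensitivity score were discarded.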

[21] = tested on: CAL-51; details: 72 h; remark: listed apart in the source
How it was run: as §3

[22] = tested on: CAL-85-1; details: 72 h; remark: listed apart in the source
How it was run: as §3

[23] = tested on: DU-4475; details: 72 h; remark: listed apart in the source
How it was run: as §3

[24] = tested on: HDQ-P1; details: 72 h
How it was run: as §3

[25] = tested on: MDA-MB-453; details: 72 h; remark: listed apart in the source
How it was run: as §3

[26] = tested on: BT-474; details: 72 h
How it was run: as §3

[27] = tested on: BT-549; details: 72 h; remark: listed apart in the source
How it was run: as §3

[28] = tested on: CAL-120; details: 72 h; remark: listed apart in the source
How it was run: as §3

[29] = tested on: HCC1143; details: 72 h; remark: listed apart in the source
How it was run: as §3

[30] = tested on: HCC1937; details: 72 h; remark: listed apart in the source
How it was run: as §3

[31] = tested on: Hs578T; details: 72 h; remark: listed apart in the source
How it was run: as §3

[32] = tested on: MDA-MB-231; details: 72 h; remark: listed apart in the source
How it was run: as §3

[33] = tested on: MDA-MB-436; details: 72 h; remark: listed apart in the source
How it was run: as §3

[34] = tested on: MDA-MB-468; details: 72 h
How it was run: as §3

[35] = tested on: MFM-223; details: 72 h; remark: listed apart in the source
How it was run: as §3

[36] = tested on: SK-BR-3; details: 72 h; remark: listed apart in the source
How it was run: as §3

[37] = tested on: BT-474; details: 72 h; remark: listed apart in the source
Experimental: as §2

[38] = tested on: BT-549; details: 72 h; remark: listed apart in the source
Experimental: as §2

[39] = tested on: CAL-85-1; details: 72 h; remark: listed apart in the source
Experimental: as §2

[40] = tested on: HCC1143; details: 72 h; remark: listed apart in the source
Experimental: as §2

[41] = tested on: HCC1937; details: 72 h; remark: listed apart in the source
Experimental: as §2

[42] = tested on: HDQ-P1; details: 72 h; remark: listed apart in the source
Experimental: as §2

[43] = tested on: Hs578T; details: 72 h; remark: listed apart in the source
Experimental: as §2

[44] = tested on: MCF-10A; details: 72 h; remark: listed apart in the source
Experimental: as §2

[45] = tested on: MDA-MB-231; details: 72 h; remark: listed apart in the source
Experimental: as §2

[46] = tested on: MFM-223; details: 72 h; remark: listed apart in the source
Experimental: as §2

Molecule CC1(C)CNc2cc(NC(=O)c3cccnc3NCc3ccncc3)ccc21 [Motesanib] has a drug sensitivity score [1] of 0.

In the case of CC(=O)N(O)CCCCCNC(=O)CCC(=O)N(O)CCCCCNC(=O)CCC(=O)N(O)CCCCCN [Deferoxamine], the “EC50, CellTiter-Glo” value [2] was 852 nM, the “EC50, CellTiter-Glo” value [3] was 1920 nM and the “EC50, CellTiter-Glo” value [4] was 6360 nM. The “EC50, CellTiter-Glo” value [5] was 3480 nM, the “EC50, CellTiter-Glo” value [6] was 832 nM and the “EC50, CellTiter-Glo” value [7] was 3970 nM. For the same molecule, the “EC50, CellTiter-Glo” value [8] was 696 nM, the “EC50, CellTiter-Glo” value [9] was 2660 nM and the “EC50, CellTiter-Glo” value [10] was 1570 nM. The “EC50, CellTiter-Glo” value [11] was 6450 nM, the “EC50, CellTox Green” value [12] was 221 nM and the “EC50, CellTox Green” value [13] was 1900 nM. It also gave a drug sensitivity score [1] of 0.

In the case of CC(=O)O[C@@]12CO[C@@H]1C[C@H](O)[C@@]1(C)C(=O)[C@H](O)C3=C(C)[C@@H](OC(=O)[C@H](O)[C@@H](NC(=O)OC(C)(C)C)c4ccccc4)C[C@@](O)([C@@H](OC(=O)c4ccccc4)[C@H]21)C3(C)C [Docetaxel], the “EC50, CellTiter-Glo” value [2] was 1.03 nM, the “EC50, CellTiter-Glo” value [14] was 3.3 nM and the “EC50, CellTiter-Glo” value [3] was 1.52 nM. The “EC50, CellTiter-Glo” value [4] was 5.86 nM, the “EC50, CellTiter-Glo” value [15] was 1.46 nM and the “EC50, CellTiter-Glo” value [5] was 8.31 nM. The “EC50, CellTiter-Glo” value [6] was 1.17 nM, the “EC50, CellTiter-Glo” value [7] was 12.2 nM and the “EC50, CellTiter-Glo” value [8] was 0.69 nM. For the same molecule, the “EC50, CellTiter-Glo” value [9] was 2.47 nM, the “EC50, CellTiter-Glo” value [16] was 1.04 nM and the “EC50, CellTiter-Glo” value [17] was 5.5 nM. The “EC50, CellTiter-Glo” value [10] was 2.14 nM, the “EC50, CellTiter-Glo” value [18] was 7.15 nM and the “EC50, CellTiter-Glo” value [19] was 3.29 nM. The “EC50, CellTiter-Glo” value [11] was 1.37 nM, the “EC50, CellTiter-Blue viability” value [20] was 1.85 nM and the “EC50, CellTiter-Blue viability” value [21] was 4.62 nM. The “EC50, CellTiter-Blue viability” value [22] was 2.27 nM, the “EC50, CellTiter-Blue viability” value [23] was 2.52 nM and the “EC50, CellTiter-Blue viability” value [24] was 1.39 nM. The “EC50, CellTiter-Blue viability” value [25] was 2.02 nM, the “EC50, CellTiter-Blue viability” value [26] was 6.71 nM and the “EC50, CellTiter-Blue viability” value [27] was 1.03 nM. The “EC50, CellTiter-Blue viability” value [28] was 2.27 nM, the “EC50, CellTiter-Blue viability” value [29] was 1.71 nM and the “EC50, CellTiter-Blue viability” value [30] was 1.02 nM. The “EC50, CellTiter-Blue viability” value [31] was 1.36 nM, the “EC50, CellTiter-Blue viability” value [32] was 2.39 nM and the “EC50, CellTiter-Blue viability” value [33] was 2.53 nM. For the same molecule, the “EC50, CellTiter-Blue viability” value [34] was 0.808 nM, the “EC50, CellTiter-Blue viability” value [35] was 2.57 nM and the “EC50, CellTiter-Blue viability” value [36] was 1.9 nM. The “EC50, CellTox Green” value [37] was 5.12 nM, the “EC50, CellTox Green” value [38] was 57.8 nM and the “EC50, CellTox Green” value [13] was 1.63 nM. For the same molecule, the “EC50, CellTox Green” value [39] was 1.87 nM, the “EC50, CellTox Green” value [40] was 108 nM and the “EC50, CellTox Green” value [41] was 946 nM. The “EC50, CellTox Green” value [42] was 123 nM, the “EC50, CellTox Green” value [43] was 4.24 nM and the “EC50, CellTox Green” value [44] was 3.14 nM. For the same molecule, the “EC50, CellTox Green” value [45] was 1.94 nM, the “EC50, CellTox Green” value [46] was 12.2 nM and the drug sensitivity score [1] was 1.03.

For COc1cc(F)c(F)c(Nc2ccc(I)cc2F)c1NS(=O)(=O)C1(C[C@H](O)CO)CC1 [RDEA119], the “EC50, CellTiter-Blue viability” value [21] was 196 nM, the “EC50, CellTiter-Blue viability” value [22] was 557 nM and the “EC50, CellTiter-Blue viability” value [23] was 42.6 nM. The “EC50, CellTiter-Blue viability” value [24] was 318 nM, the “EC50, CellTiter-Blue viability” value [25] was 4260 nM and the “EC50, CellTiter-Blue viability” value [28] was 585 nM. The “EC50, CellTiter-Blue viability” value [29] was 159 nM, the “EC50, CellTiter-Blue viability” value [30] was 1310 nM and the “EC50, CellTiter-Blue viability” value [31] was 81 nM. The “EC50, CellTiter-Blue viability” value [32] was 21.3 nM, the “EC50, CellTiter-Blue viability” value [34] was 7180 nM and the “EC50, CellTiter-Blue viability” value [35] was 2870 nM.

In the case of CC(=O)c1c(C)c2cnc(Nc3ccc(N4CCNCC4)cn3)nc2n(C2CCCC2)c1=O [Palbociclib], the “EC50, CellTiter-Glo” value [14] was 409 nM, the “EC50, CellTiter-Glo” value [4] was over 10000 nM and the “EC50, CellTiter-Glo” value [9] was over 10000 nM. For the same molecule, the “EC50, CellTiter-Glo” value [16] was 1020 nM, the “EC50, CellTiter-Glo” value [19] was 86.9 nM and the “EC50, CellTiter-Glo” value [11] was 2240 nM. The drug sensitivity score [1] was 0.

For Oc1ncnc2[nH]ncc12 [Allopurinol], the drug sensitivity score [1] was 0.
